The NIST ThermoML archive (doi:10.1021/je100315g)
Numbers after ± are expanded uncertainties.

Legend:
[1] = xn = mol fraction of the nth substance listed; settings: 101 kPa, Liquid
[2] = 101 kPa, Liquid

CCn1cc[n+](C)c1.O=S(=O)([N-]S(=O)(=O)C(F)(F)F)C(F)(F)F + CC#N
mass density [kg/m3], [1]
Settings	x1 = 0.0533	x1 = 0.1886	x1 = 0.337	x1 = 0.4724	x1 = 0.652	x1 = 0.8245	x1 = 0.924	x1 = 1
293.15 K	946.96 ± 0.45	1183.76 ± 0.72	1316.94 ± 0.83	1390.06 ± 0.88	1452.53 ± 0.91	1492.64 ± 0.92	1510.36 ± 0.94	1522.08 ± 0.95
298.15 K	941.54 ± 0.39	1178.5 ± 0.64	1311.68 ± 0.82	1384.82 ± 0.87	1447.4 ± 0.9	1487.58 ± 0.92	1505.26 ± 0.93	1516.96 ± 0.94
303.13 K	936.1 ± 0.4	1173.4 ± 0.63	1306.48 ± 0.81	1379.62 ± 0.87	1442.24 ± 0.89	1482.39 ± 0.91	1500.2 ± 0.92	1511.85 ± 0.93
308.15 K	930.61 ± 0.41	1168.18 ± 0.62	1301.14 ± 0.8	1374.57 ± 0.86	1437.1 ± 0.88	1477.35 ± 0.9	1495.13 ± 0.91	1506.8 ± 0.92
313.15 K	925.26 ± 0.54	1162.68 ± 0.74	1296.39 ± 0.81	1369.51 ± 0.86	1432.02 ± 0.88	1472.28 ± 0.89	1490.11 ± 0.9	1501.74 ± 0.91

C[S+](C)[O-] [dimethyl sulfoxide]
[2]
Settings	mass density [kg/m3]
293.15 K	1100.31 ± 0.29
298.15 K	1095.3 ± 0.28
303.13 K	1090.31 ± 0.27
308.15 K	1085.27 ± 0.26
313.15 K	1080.27 ± 0.26

CCCC[n+]1ccn(C)c1.O=S(=O)([N-]S(=O)(=O)C(F)(F)F)C(F)(F)F + CC#N
mass density [kg/m3], [1]
Settings	x1 = 0.0971	x1 = 0.2033	x1 = 0.2989	x1 = 0.471	x1 = 0.6261	x1 = 0.7423	x1 = 0.8983	x1 = 1
293.15 K	1034.65 ± 0.52	1175.45 ± 0.63	1252.06 ± 0.71	1335.15 ± 0.79	1380.43 ± 0.8	1404.79 ± 0.8	1429.03 ± 0.81	1441.63 ± 0.82
298.15 K	1029.33 ± 0.39	1170.35 ± 0.61	1247.09 ± 0.7	1330.18 ± 0.78	1375.57 ± 0.79	1400.01 ± 0.79	1424.12 ± 0.8	1436.83 ± 0.81
303.13 K	1024.05 ± 0.38	1165.12 ± 0.6	1242.32 ± 0.69	1325.41 ± 0.77	1370.72 ± 0.78	1395.36 ± 0.79	1419.28 ± 0.8	1431.98 ± 0.81
308.15 K	1019.47 ± 0.38	1160.25 ± 0.6	1237.21 ± 0.68	1320.49 ± 0.76	1365.88 ± 0.77	1390.45 ± 0.78	1414.54 ± 0.79	1427.16 ± 0.8
313.15 K	1014.26 ± 0.58	1155.05 ± 0.62	1232.4 ± 0.69	1315.67 ± 0.77	1361.14 ± 0.77	1385.64 ± 0.77	1409.73 ± 0.78	1422.36 ± 0.79

C1CCOC1 [tetrahydrofuran] + CCn1cc[n+](C)c1.O=S(=O)([N-]S(=O)(=O)C(F)(F)F)C(F)(F)F
[1], x2 = 0
Settings	mass density [kg/m3]
293.15 K	887.41 ± 0.46
298.15 K	881.98 ± 0.46
303.13 K	876.47 ± 0.47
308.15 K	870.96 ± 0.48

CCCC[n+]1ccn(C)c1.O=S(=O)([N-]S(=O)(=O)C(F)(F)F)C(F)(F)F + C[S+](C)[O-]
mass density [kg/m3], [1]
Settings	293.15 K	298.15 K	303.13 K	308.15 K	313.15 K
x1 = 0.1025	1202.34 ± 0.45	1197.39 ± 0.45	1192.43 ± 0.44	1187.49 ± 0.43	1182.55 ± 0.45
x1 = 0.196	1263.15 ± 0.55	1258.21 ± 0.55	1253.26 ± 0.54	1248.31 ± 0.53	1243.37 ± 0.53
x1 = 0.2358	1283.38 ± 0.58	1278.4 ± 0.57	1273.45 ± 0.57	1268.49 ± 0.56	1263.51 ± 0.55
x1 = 0.3241	1319.45 ± 0.64	1314.52 ± 0.63	1309.58 ± 0.62	1304.64 ± 0.62	1299.72 ± 0.61
x1 = 0.4205	1349.72 ± 0.69	1344.81 ± 0.68	1339.88 ± 0.67	1334.99 ± 0.66	1330.05 ± 0.66
x1 = 0.4785	1364.67 ± 0.71	1359.72 ± 0.7	1354.8 ± 0.69	1349.87 ± 0.69	1344.87 ± 0.68
x1 = 0.5179	1373.61 ± 0.72	1368.67 ± 0.71	1363.77 ± 0.71	1358.86 ± 0.7	1353.93 ± 0.69
x1 = 0.5911	1388.28 ± 0.74	1383.33 ± 0.73	1378.5 ± 0.73	1373.59 ± 0.72	1368.72 ± 0.71
x1 = 0.6581	1400.07 ± 0.76	1395.16 ± 0.75	1390.25 ± 0.74	1385.42 ± 0.73	1380.54 ± 0.73
x1 = 0.8232	1423.06 ± 0.79	1418.22 ± 0.78	1413.34 ± 0.78	1408.48 ± 0.77	1403.6 ± 0.76
x1 = 1	1441.63 ± 0.82	1436.83 ± 0.81	1431.98 ± 0.81	1427.16 ± 0.8	1422.36 ± 0.79

CC#N [acetonitrile] + CCn1cc[n+](C)c1.O=S(=O)([N-]S(=O)(=O)C(F)(F)F)C(F)(F)F
[1], x2 = 0
Settings	mass density [kg/m3]
293.15 K	781.89 ± 0.59
298.15 K	776.52 ± 0.59
303.13 K	771.12 ± 0.6
308.15 K	765.68 ± 0.61
313.15 K	760.2 ± 0.62
